This note sets out measurements from patent US6780972B2, “Method for the synthesis of peptide salts, their use and the pharmaceutical preparations, containing peptide salts” (Zentaris GmbH, priority 2000, dated 2004).

Non-standard residues stand in square brackets, D forms with d. Residues, ends and D or L forms follow the SMILES beside them. dPhe(4-Cl) = N[C@H](Cc1ccc(Cl)cc1)C(=O)O; d2Nal = N[C@H](Cc1ccc2ccccc2c1)C(=O)O; dCit = NC(=O)NCCC[C@@H](N)C(=O)O; d3Pal = N[C@H](Cc1cccnc1)C(=O)O

A short description of data set [1]: Duration of effect / period of action after administration in man. It counts as in vivo. The protocol: (§1) The Cetrorelix embonate (2:1) lyophilysate (30 mg), obtained according to Example 1, is resuspended in 2 mL of water for injection purposes and can then be administered parenterally, preferable subcutaneously (s.c.) or intramuscularly (i.m.)
(§2) For the s.c. administration, the bioavailability of the Cetrorelix embonate (2:1) is about 30 to 50% (100%=intravenously administered Cetrolix acetate). […] The duration of the effect depends on the dose; for a dose of 30 to 150 mg, it is 2 to 8 weeks or longer. The inventive Cetrorelix embonate (2:1) lyophilysate has already been investigated in Clinical Phase I in man.
(§3) The period of action exceeded 700 hours. The plasma level was constant at about 2 ng/mL 150 hours after the administration. The bioavailability was abut 40%.

A short description of data set [2]: Cetrorelix plasma concentration and bioavailability after administration of the Cetrorelix embonate (2:1) lyophilysate in man (Clinical Phase I). It counts as in vivo. The method, then: as §1, §2, §3

Turning to `CC(=O)N[C@H](Cc1ccc2ccccc2c1)C(=O)N[C@H](Cc1ccc(Cl)cc1)C(=O)N[C@H](Cc1cccnc1)C(=O)N[C@@H](CO)C(=O)N[C@@H](Cc1ccc(O)cc1)C(=O)N[C@H](CCCNC(N)=O)C(=O)N[C@@H](CC(C)C)C(=O)N[C@@H](CCCNC(=N)N)C(=O)N1CCC[C@H]1C(=O)N[C@H](C)C(N)=O` [Cetrorelix embonate (2:1), Cetrorelix embonate] (Ac-[d2Nal][dPhe(4-Cl)][d3Pal]SY[dCit]LRP[dA]-NH2; N-terminus and C-terminus assumed), in data set [1] (60 mg in man, FIG. 1), the period of action entry is “exceeded 700 hours”. Moreover, the “duration of the effect” value in data set [1] (dose of 30 to 150 mg, depends on the dose, 'or longer') was 2 to 8 weeks. Besides, in data set [2] (60 mg in man, FIG. 1), the “burst effect (ca. 100 ng/mL)” value is given as “could not be detected”. For the same compound, the bioavailability in data set [2] (human, in vivo, subcutaneous, s.c. administration, 100% = intravenously administered Cetrolix acetate) is 30 to 50%; in data set [2] (human, plasma, 60 mg in man, FIG. 1), roughly 40%. Further, the level at 150 h in data set [2] (human, plasma, 60 mg in man, constant 150 hours after the administration, FIG. 1) was roughly 2 ng/mL. The burst effect result in data set [2] (in patients) is reported as “slight or even absent”.
